The subject of one data set is tumors. The experiment in a line: Synergy with chemotherapeutic agents. The data set is classed as in vivo. To be noted: often inducing complete regression of tumors.
The nature of data set [1]: Long term stability of ON 01910.Na 75 mg/mL in 100% PEG-400 for clinical use (HPLC). The data set is classed as physicochemical. How it is done: ON 01910.Na IV solution was manufactured at a concentration of 75 mg/mL in 100% PEG-400. The finished product consisted of 3 mL of drug product aseptically filled into presterilized 5 mL vials. The manufacturing was in compliance with current Good Manufacturing Practices regulations.
(a) HPLC—Chromatography is performed using a Phenomenex Luna C-18 (2), 5 micron (4.6 mm×250 mm, PN 00G-4252-E0) column at ambient conditions. The mobile phase used is 60%-0.1% trifluoroacetic acid in water; 40% acetonitrile. The flow rate is set at 2.0 ml/min. Injection volume is 50 μL. Detection is accomplished by means of a UV/VIS detector at 230, 254, and 320 nm. Instrument control and data acquisition is facilitated using a Waters Millennium (V 2.15) software package. The external calibration is obtained using ON 01910.Na standard solutions prepared in 50:50 acetonitrile:water. This analytical method was validated.

Data set [2] relates to Patients With Advanced Solid Tumors. The experiment in a line: Phase I dose escalation study, 2-hour intravenous infusion. It is filed as in vivo, human. Here is the method:
Safety and efficacy of this formulation, for example, is tested in a Phase I clinical study, at The Johns Hopkins Sidney Kimmel Cancer Center, Baltimore, Md., i.e., “Phase I Dose Escalation Study Of ON 01910.Na By 2-Hour Intravenous Infusion In Patients With Advanced Solid Tumors”. U.S. FDA IND #66,780. The objectives of this study include an identification of a maximum tolerated dose (MTD) and a recommended dose for further clinical studies. A further object of the study is to establish a safety profile, i.e., to observe any toxicities. The patients in this study have advanced solid tumors that have failed conventional treatments, or for which no approved therapy exists. An object of the study is particularly to observe efficacy (anti-cancer effects).
The patients are administered the preferred formulation described herein of the ON 01910.Na drug (properly diluted in intravenous solution) over a two hour period, twice per week, for three weeks. The patients are subsequently observed for […], to constitute a four week treatment cycle.
This study started with a single patient at the first starting dose level of 80 mg per patient. If there is no grade 2 or worse drug-related toxicity (side effects) observed in the first four week cycle, then another patient may be dosed at the next higher dose level. The first patient was dosed at 80 mg per patient on Aug. 3, 2004. […]

A value given as a limit tells only on which side of the number the result lay.

For `COc1cc(OC)c(/C=C/S(=O)(=O)Cc2ccc(OC)c(NCC(=O)O)c2)c(OC)c1` [Compound 4, (E)-2,4,6-Trimethoxystyryl-3-(carboxymethylamino)-4-methoxybenzylsulfone], in the data set with tumors, the “synergy with chemotherapeutic agents” value is “strong synergy”.
With `COc1cc(OC)c(/C=C/S(=O)(=O)Cc2ccc(OC)c(NCC(=O)[O-])c2)c(OC)c1.[Na+]` [ON 01910.Na, (E)-2,4,6-trimethoxystyryl-3-carboxymethylamino-4-methoxybenzylsulfone], the shelf stability entry in data set [1] (75 mg per ml in 100% PEG-400) was “shelf-stable for over one year”. Moreover, the long term stability entry in data set [1] (100% PEG-400 formulation for clinical use) is “extremely stable”. In addition, in data set [2] (80 to 2080 mg per patient, 2 hour iv infusion, twice per week for three weeks, four week cycle), the drug-related toxicity result was “no grade 2 or worse toxicities”. Besides, the dose safely administered in data set [2] (iv 2 hour infusion, twice per week, for 3 weeks, ten days off) was ≥ 2080 mg.
